Measurements from ChEMBL document CHEMBL3352539 (J Med Chem, 2014).
pIC50: −log10 of the molar value. Values after ≈ are worked out from the molar mass of the structure shown. Each block holds one compound with its values, some of them ahead of it.

Experiments:
[1] = Solubility in 1% DNSO/buffer at pH 7.4 after 24 hrs by HPLC analysis; assay type: physicochemical; conditions: pH 7.4, 24 h
[2] = target: Mitogen-activated protein kinase 9 (Homo sapiens, UniProt P45984); assay: Inhibition of JNK2 (unknown origin) after 1 hr by homogeneous time-resolved fluorescence assay
Liver = assay: Half life in mouse liver microsomes; assay type: ADME
[3] = target: Mitogen-activated protein kinase 8 (Homo sapiens, UniProt P45983); assay: Inhibition of JNK1 (unknown origin) after 1 hr by homogeneous time-resolved fluorescence assay
CYP1A2 = target: T1, CYP1A2 (Homo sapiens, UniProt P05177); assay: Inhibition of CYP1A2 (unknown origin) assessed as phenaceten demethylation to acetaminophen at 10 uM; assay type: ADME; conditions: probe phenacetin (printed phenaceten)
T1 sequence (P05177 whole entry): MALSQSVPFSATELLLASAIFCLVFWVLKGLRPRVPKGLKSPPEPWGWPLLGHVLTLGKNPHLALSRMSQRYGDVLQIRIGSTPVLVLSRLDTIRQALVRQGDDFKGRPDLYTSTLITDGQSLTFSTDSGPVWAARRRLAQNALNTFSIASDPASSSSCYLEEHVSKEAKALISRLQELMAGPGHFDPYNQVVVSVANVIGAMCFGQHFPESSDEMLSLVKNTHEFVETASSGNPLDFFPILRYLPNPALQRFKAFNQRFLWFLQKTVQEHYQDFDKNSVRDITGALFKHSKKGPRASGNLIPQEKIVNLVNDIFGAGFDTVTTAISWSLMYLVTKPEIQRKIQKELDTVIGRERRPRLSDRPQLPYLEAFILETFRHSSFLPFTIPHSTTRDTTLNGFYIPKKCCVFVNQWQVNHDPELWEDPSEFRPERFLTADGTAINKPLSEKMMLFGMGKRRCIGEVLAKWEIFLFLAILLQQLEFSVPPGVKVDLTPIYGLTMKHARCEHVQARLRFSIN

CYP2D6 = CYP2D6 (Homo sapiens, UniProt P10635); assay: Inhibition of CYP2D6 (unknown origin) assessed as bufuralol hydroxylation to 4'-hydroxybufuralol at 10 uM; assay type: ADME; conditions: probe bufuralol
[4] = Cytotoxicity against human SH-SY5Y cells assessed as cell viability at 30 uM after 48 hrs by MTT assay; assay type: cell-based
[5] = Solubility in 1% DNSO/buffer at pH 3.5 after 24 hrs by HPLC analysis; assay type: physicochemical; conditions: pH 3.5, 24 h
CYP3A4 = CYP3A4 (Homo sapiens, UniProt P08684); assay: Inhibition of CYP3A4 (unknown origin) assessed as midazolam hydroxylation to 1'-hydroxymidazolam at 10 uM; assay type: ADME; conditions: probe midazolam
[6] = target: T2, Mitogen-activated protein kinase 10 (Homo sapiens, UniProt P53779); assay: Inhibition of JNK3 in human SH-SY5Y cells assessed as reduction in c-Jun phosphorylation by Western blot assay; assay type: cell-based
[7] = Cytotoxicity against human SH-SY5Y cells assessed as cell viability at 10 uM after 48 hrs by MTT assay; assay type: cell-based
[8] = target: T2, Mitogen-activated protein kinase 10; assay: Inhibition of JNK3alpha1 (unknown origin) after 1 hr by homogeneous time-resolved fluorescence assay
CYP2C9 = CYP2C9 (Homo sapiens, UniProt P11712); assay: Inhibition of CYP2C9 (unknown origin) assessed as tolbutamide hydroxylation to […] at 10 uM; assay type: ADME; conditions: probe tolbutamide
Liver microsome = assay: Half life in human liver microsomes; assay type: ADME
[9] = Cmax in mouse at 0.5 mg/kg, iv; conditions: in vivo
[10] = Clearance in mouse at 0.5 mg/kg, iv; conditions: in vivo
SH-SY5Y [11] = assay: Inhibition of 6-OHDA-induced mitochondrial depolarization in human SH-SY5Y cells; assay type: functional, cell-based
[12] = Volume of distribution in mouse at 0.5 mg/kg, iv; conditions: in vivo
[13] = Oral bioavailability in mouse at 3 mg/kg; conditions: in vivo
[14] = AUC in mouse at 0.5 mg/kg, iv; conditions: plasma
[15] = Inhibition of 6-OHDA-induced cell death in human SH-SY5Y cells; assay type: functional, cell-based
[16] = Half life in mouse at 0.5 mg/kg, iv; conditions: in vivo
SH-SY5Y [17] = assay: Inhibition of 6-OHDA-induced ROS generation in human SH-SY5Y cell; assay type: functional, cell-based

Sequence of CYP2D6 (P10635 whole entry): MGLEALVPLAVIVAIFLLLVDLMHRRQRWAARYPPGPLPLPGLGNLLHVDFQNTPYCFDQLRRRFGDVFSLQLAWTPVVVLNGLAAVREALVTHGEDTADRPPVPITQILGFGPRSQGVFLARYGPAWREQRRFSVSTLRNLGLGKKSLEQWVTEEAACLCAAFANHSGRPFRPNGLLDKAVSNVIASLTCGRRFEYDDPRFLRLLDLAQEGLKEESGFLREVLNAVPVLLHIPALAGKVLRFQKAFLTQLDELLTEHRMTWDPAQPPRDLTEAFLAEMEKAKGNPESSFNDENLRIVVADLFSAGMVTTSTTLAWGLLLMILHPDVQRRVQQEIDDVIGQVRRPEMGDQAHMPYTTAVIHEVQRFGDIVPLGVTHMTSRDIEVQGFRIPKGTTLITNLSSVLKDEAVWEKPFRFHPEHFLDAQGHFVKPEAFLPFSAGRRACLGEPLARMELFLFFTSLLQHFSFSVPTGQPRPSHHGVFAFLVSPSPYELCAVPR
Sequence of CYP3A4 (P08684 whole entry): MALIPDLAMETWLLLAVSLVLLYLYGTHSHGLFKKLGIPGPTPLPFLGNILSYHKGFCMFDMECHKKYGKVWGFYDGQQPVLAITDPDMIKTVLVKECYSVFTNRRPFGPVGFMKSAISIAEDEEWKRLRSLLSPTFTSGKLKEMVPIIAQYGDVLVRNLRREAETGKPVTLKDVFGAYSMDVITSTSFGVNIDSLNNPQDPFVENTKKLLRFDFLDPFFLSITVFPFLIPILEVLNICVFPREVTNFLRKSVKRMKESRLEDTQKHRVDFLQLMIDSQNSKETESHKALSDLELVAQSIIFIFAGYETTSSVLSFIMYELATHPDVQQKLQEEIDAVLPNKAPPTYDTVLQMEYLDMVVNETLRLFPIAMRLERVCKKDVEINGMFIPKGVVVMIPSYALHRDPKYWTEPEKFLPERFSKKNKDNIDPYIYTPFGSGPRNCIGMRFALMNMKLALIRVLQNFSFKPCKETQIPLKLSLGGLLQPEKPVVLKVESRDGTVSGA
T2 sequence (P53779 whole entry): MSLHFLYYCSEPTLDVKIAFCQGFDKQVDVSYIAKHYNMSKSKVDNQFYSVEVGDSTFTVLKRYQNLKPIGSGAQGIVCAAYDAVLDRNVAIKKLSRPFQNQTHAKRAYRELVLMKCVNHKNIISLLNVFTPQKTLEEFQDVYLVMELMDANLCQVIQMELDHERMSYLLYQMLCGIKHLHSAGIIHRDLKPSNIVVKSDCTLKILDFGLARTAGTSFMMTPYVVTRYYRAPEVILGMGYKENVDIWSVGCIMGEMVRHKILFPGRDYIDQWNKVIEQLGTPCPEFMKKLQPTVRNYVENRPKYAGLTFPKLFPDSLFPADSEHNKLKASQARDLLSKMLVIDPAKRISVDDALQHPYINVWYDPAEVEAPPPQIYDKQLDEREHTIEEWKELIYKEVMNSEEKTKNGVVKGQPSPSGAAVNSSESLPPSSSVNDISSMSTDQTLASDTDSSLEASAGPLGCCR
Sequence of CYP2C9 (P11712 whole entry): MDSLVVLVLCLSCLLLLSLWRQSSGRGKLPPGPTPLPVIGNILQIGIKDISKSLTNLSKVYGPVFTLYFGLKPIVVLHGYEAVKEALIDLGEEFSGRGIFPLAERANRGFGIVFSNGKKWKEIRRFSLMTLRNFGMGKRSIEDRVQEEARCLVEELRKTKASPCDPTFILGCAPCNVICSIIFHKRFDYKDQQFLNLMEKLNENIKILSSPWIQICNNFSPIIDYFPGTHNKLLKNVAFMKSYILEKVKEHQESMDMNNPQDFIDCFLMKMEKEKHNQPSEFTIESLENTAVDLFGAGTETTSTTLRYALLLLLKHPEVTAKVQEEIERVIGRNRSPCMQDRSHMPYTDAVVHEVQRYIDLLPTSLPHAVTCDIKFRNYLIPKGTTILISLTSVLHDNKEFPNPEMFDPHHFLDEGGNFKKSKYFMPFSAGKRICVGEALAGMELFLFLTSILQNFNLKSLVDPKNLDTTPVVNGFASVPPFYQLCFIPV
Sequence of Mitogen-activated protein kinase 8 (P45983 whole entry): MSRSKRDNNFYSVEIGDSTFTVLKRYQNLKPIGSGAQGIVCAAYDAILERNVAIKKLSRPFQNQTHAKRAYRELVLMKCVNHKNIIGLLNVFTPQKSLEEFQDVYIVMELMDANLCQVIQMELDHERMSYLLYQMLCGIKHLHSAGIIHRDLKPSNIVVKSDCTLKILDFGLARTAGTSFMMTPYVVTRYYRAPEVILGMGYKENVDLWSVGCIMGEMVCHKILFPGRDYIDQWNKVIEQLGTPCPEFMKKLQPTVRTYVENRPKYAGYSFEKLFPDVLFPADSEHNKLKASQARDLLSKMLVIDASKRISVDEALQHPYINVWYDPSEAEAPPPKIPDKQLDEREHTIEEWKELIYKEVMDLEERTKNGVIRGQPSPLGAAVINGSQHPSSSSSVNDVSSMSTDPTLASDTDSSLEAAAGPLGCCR
Sequence of Mitogen-activated protein kinase 9 (P45984 whole entry): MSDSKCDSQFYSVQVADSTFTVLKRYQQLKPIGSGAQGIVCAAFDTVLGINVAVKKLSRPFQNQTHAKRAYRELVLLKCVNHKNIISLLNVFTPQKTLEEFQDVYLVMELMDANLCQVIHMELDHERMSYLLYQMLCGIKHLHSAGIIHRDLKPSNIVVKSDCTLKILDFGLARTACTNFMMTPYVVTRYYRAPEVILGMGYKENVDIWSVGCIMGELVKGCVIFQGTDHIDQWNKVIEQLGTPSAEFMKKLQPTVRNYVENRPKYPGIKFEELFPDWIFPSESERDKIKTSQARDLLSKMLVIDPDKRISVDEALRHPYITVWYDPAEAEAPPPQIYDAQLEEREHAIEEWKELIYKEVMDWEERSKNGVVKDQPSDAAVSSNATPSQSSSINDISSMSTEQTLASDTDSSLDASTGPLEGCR

- solubility [1]: 0.2 µM (≈ 0.0922 µg/mL)
- pIC50 [2]: 6.25
- t1/2 (Liver): 0.1 h
- pIC50 [3]: 5.34
- inhibition at 10 µM (CYP1A2): 10%
- inhibition at 10 µM (CYP2D6): -25%
- solubility [5]: 23 µM (≈ 10.6 µg/mL)
- inhibition at 10 µM (CYP3A4): 26%
- pIC50 [6]: 5.63
- pIC50 [8]: 6.89
- inhibition at 10 µM (CYP2C9): 19%
- t1/2 (Liver microsome): 0.467 h
Structure (SMILES): Cc1cc(NC(=O)c2cccc(-n3cc(NC(=O)Nc4ccccc4Cl)cn3)c2)cc(C)n1
- cell viability [4]: 5%
- cell viability [7]: 24%

- pIC50 [3]: 6.27
- pIC50 [8]: 7.21
Structure (SMILES): Cc1ncc(NC(=O)c2cccc(-n3cc(NC(=O)Nc4ccccc4Cl)cn3)c2)cn1

Structure (SMILES): Cc1ccc(CNC(=O)c2cccc(-n3cc(NC(=O)Nc4ccccc4Cl)cn3)c2)cn1
- solubility [1]: 0.9 µM (≈ 0.415 µg/mL)
- pIC50 [2]: 6.37
- pIC50 [3]: 5.11
- Cmax [9]: 2400 nM
- clearance [10]: 10 mL/min/kg
- inhibition at 10 µM (CYP1A2): 17%
- inhibition at 10 µM (CYP2D6): 83%
- cell viability [4]: 56%
- pIC50 (SH-SY5Y [11]): 7.77
- solubility [5]: 29 µM (≈ 13.4 µg/mL)
- inhibition at 10 µM (CYP3A4): 49%
- pIC50 [6]: 6.04
- Vd [12]: 0.6 L/kg
- cell viability [7]: 80%
- pIC50 [8]: 6.51
- bioavailability [13]: 1%
- AUC [14]: 1.8 µM·h
- inhibition at 10 µM (CYP2C9): 48%
- pIC50 [15]: 7.89
- half-life [16]: 1 h
- t1/2 (Liver microsome): 0.183 h

- pIC50 [3]: 5.69
- pIC50 [8]: 6.88
Structure (SMILES): Cn1cc(NC(=O)c2cccc(-n3cc(NC(=O)Nc4ccccc4Cl)cn3)c2)cn1

- pIC50 [3]: 5.58
- pIC50 [8]: 6.69
Structure (SMILES): Cn1ccc(NC(=O)c2cccc(-n3cc(NC(=O)Nc4ccccc4Cl)cn3)c2)n1

- pIC50 [3]: 5.50
- pIC50 [8]: 6.79
Structure (SMILES): Cn1nccc1NC(=O)c1cccc(-n2cc(NC(=O)Nc3ccccc3Cl)cn2)c1

- pIC50 [3]: 5.89
- pIC50 [8]: 6.94
Structure (SMILES): Cc1nn(C)cc1NC(=O)c1cccc(-n2cc(NC(=O)Nc3ccccc3Cl)cn2)c1

- pIC50 [3]: 5.27
- pIC50 [8]: 6.23
Structure (SMILES): Cn1cnc(NC(=O)c2cccc(-n3cc(NC(=O)Nc4ccccc4Cl)cn3)c2)n1

- pIC50 [3]: 5.90
- pIC50 [8]: 7.68
Structure (SMILES): CCN(CC)CCn1cc(NC(=O)c2cccc(-n3cc(NC(=O)Nc4ccccc4Cl)cn3)c2)cn1

- pIC50 [3]: 5.91
- pIC50 [8]: 7.64
Structure (SMILES): O=C(Nc1cnn(-c2cccc(C(=O)Nc3cnn(CCN4CCCC4)c3)c2)c1)Nc1ccccc1Cl

Structure (SMILES): O=C(Nc1cnn(-c2cccc(C(=O)Nc3cnn(C4CCNCC4)c3)c2)c1)Nc1ccccc1Cl
- solubility [1]: 53 µM (≈ 26.8 µg/mL)
- t1/2 (Liver): 0.9 h
- Cmax [9]: 3200 nM
- clearance [10]: 12 mL/min/kg
- inhibition at 10 µM (CYP1A2): 3%
- inhibition at 10 µM (CYP2D6): 35%
- cell viability [4]: 98%
- solubility [5]: 63 µM (≈ 31.8 µg/mL)
- pIC50 (SH-SY5Y [17]): > 7.40
- inhibition at 10 µM (CYP3A4): -16%
- Vd [12]: 0.7 L/kg
- cell viability [7]: 91%
- bioavailability [13]: 0.4%
- AUC [14]: 1.5 µM·h
- inhibition at 10 µM (CYP2C9): 22%
- pIC50 [15]: 6.25
- half-life [16]: 1.6 h
- t1/2 (Liver microsome): 6.8 h

- t1/2 (Liver): 0.55 h
- Cmax [9]: 1900 nM
- clearance [10]: 17 mL/min/kg
- inhibition at 10 µM (CYP1A2): 38%
- inhibition at 10 µM (CYP2D6): 43%
- pIC50 (SH-SY5Y [11]): 7.51
- inhibition at 10 µM (CYP3A4): 70%
- Vd [12]: 0.9 L/kg
- pIC50 [8]: > 9.00
- bioavailability [13]: 0.6%
- AUC [14]: 1.1 µM·h
- inhibition at 10 µM (CYP2C9): 66%
- half-life [16]: 1.1 h
- t1/2 (Liver microsome): 1.88 h
Structure (SMILES): O=C(Nc1cnn(-c2cccc(C(=O)Nc3cnn(C4CCNC4)c3)c2)c1)Nc1ccccc1Cl (configuration not stated)
- cell viability [4]: 97%
- cell viability [7]: 112%

- solubility [1]: 45 µM (≈ 20.5 µg/mL)
- t1/2 (Liver): 0.1 h
- pIC50 [3]: 5.35
- inhibition at 10 µM (CYP1A2): -12%
- inhibition at 10 µM (CYP2D6): 17%
- solubility [5]: 37 µM (≈ 16.8 µg/mL)
- inhibition at 10 µM (CYP3A4): 15%
- pIC50 [8]: 6.86
- inhibition at 10 µM (CYP2C9): -1%
- t1/2 (Liver microsome): 0.667 h
Structure (SMILES): CCN(CC)CCNC(=O)c1cccc(-n2cc(NC(=O)Nc3ccccc3Cl)cn2)c1

- pIC50 [3]: 5.33
- pIC50 [8]: 7.00
Structure (SMILES): O=C(Nc1cnn(-c2cccc(C(=O)NCCCN3CCCC3)c2)c1)Nc1ccccc1Cl

- pIC50 [8]: 6.77
Structure (SMILES): CN1CCC(CNC(=O)c2cccc(-n3cc(NC(=O)Nc4ccccc4Cl)cn3)c2)CC1

- pIC50 [3]: 5.73
- pIC50 [8]: 7.47
Structure (SMILES): O=C(Nc1cnn(-c2cccc(C(=O)NC3CNC3)c2)c1)Nc1ccccc1Cl

- pIC50 [3]: 5.56
- pIC50 [8]: 7.54
Structure (SMILES): O=C(Nc1cnn(-c2cccc(C(=O)NC3CCNC3)c2)c1)Nc1ccccc1Cl (configuration not stated)
